Source: paper PMC5096949 (Toxicology letters, 2016)
“Also recorded” adds a separate entry of the source.

Experiments:
[1] = target: T1, Human Recombinant FAAH (fatty acid amide hydrolase) (Homo sapiens, UniProt O00519); test: FAAH inhibition, fluorimetric assay with OMP substrate, recombinant enzyme; assay type: biochemical; conditions: for activity / potency towards FAAH (in words): recombinant FAAH; for time-dependence of FAAH inhibition: pre-incubation of enzyme with inhibitor up to 1 h
T1 sequence (O00519 1-579): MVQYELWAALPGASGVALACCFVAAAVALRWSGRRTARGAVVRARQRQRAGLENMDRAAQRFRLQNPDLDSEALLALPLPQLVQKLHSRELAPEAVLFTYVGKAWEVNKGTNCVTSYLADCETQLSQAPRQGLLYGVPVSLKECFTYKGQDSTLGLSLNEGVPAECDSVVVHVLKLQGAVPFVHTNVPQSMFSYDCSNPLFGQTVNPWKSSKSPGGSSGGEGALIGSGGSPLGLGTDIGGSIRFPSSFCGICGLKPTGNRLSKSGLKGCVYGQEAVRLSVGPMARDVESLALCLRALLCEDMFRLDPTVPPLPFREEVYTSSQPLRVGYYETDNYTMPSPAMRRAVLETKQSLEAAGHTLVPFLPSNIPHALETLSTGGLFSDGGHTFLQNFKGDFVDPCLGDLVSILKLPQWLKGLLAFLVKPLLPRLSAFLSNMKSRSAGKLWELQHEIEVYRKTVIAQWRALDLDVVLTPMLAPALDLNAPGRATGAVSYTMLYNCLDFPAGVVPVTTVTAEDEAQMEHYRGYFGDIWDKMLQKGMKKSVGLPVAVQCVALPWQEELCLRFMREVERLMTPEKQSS

[2] = test system: PPARγ, C/EBPα and FABP4 mRNA expression; test: RT-PCR of adipocyte marker genes in 3T3-L1 cells; assay type: cell-based, Murine; conditions: for effect on AEA-induced adipocyte marker expression: 3T3-L1, 10 μM compound, co-treatment with AEA 10 μM; for PPARγ, C/EBPα and FABP4 mRNA expression: 3T3-L1, 1, 10, 50 μM for 7 days, n = 3
[3] = target: T2, Human Recombinant hCE1 (carboxylesterase 1) (Homo sapiens, UniProt P23141); test: Esterase inhibition, fluorimetric assay with CMNA substrate; assay type: biochemical
T2 sequence (P23141 18-567): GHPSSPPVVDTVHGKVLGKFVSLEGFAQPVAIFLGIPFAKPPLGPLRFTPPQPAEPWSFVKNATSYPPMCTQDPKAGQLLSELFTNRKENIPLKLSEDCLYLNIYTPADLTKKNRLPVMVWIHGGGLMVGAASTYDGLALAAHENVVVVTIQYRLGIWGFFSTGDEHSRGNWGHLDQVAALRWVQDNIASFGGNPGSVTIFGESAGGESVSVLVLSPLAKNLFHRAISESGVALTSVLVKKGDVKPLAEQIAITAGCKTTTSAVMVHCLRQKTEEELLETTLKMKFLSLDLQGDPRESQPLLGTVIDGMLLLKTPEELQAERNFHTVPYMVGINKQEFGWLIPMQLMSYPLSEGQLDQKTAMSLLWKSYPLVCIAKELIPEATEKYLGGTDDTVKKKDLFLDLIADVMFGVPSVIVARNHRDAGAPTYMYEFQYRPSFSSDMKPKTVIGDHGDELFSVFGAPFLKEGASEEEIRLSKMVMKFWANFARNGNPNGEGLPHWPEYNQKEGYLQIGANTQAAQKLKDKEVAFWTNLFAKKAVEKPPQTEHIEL

[4] = target: T3, Human Recombinant hCE2 (carboxylesterase 2) (Homo sapiens, UniProt O00748); test: as above; assay type: biochemical
T3 sequence (O00748 27-559): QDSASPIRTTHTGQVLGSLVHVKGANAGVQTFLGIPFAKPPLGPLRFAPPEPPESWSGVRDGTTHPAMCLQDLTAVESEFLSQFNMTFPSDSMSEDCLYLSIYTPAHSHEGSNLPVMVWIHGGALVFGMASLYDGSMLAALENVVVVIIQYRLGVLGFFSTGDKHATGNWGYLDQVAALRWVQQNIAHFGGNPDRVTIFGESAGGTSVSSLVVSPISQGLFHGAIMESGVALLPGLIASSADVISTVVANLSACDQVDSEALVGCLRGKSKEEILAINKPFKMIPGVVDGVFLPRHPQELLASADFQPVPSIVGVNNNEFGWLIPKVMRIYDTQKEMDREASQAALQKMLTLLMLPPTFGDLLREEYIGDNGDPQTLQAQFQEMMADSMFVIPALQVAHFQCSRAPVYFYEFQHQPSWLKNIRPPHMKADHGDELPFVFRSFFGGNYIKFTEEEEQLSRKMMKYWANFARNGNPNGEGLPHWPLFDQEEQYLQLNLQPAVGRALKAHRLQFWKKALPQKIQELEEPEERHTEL

[5] = target: T4, Human Recombinant AADAC (arylacetamide deacetylase) (Homo sapiens, UniProt P22760); test: as above; assay type: biochemical
T4 sequence (P22760 1-399): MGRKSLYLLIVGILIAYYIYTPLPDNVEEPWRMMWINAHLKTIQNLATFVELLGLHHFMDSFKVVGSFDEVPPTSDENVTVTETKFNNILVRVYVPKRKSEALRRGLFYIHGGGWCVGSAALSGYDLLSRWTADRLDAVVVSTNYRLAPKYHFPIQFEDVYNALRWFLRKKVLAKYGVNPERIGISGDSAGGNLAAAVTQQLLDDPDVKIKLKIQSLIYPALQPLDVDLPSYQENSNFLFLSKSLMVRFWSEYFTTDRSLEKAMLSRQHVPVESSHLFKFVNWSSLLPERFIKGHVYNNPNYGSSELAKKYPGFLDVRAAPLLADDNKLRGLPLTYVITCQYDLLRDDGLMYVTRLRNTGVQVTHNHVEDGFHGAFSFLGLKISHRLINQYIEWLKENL

3T3-L1 cells = test: 3T3-L1 adipocyte differentiation, Oil Red O staining of lipid accumulation; assay type: cell-based, Murine; conditions: for effect on AEA-mediated adipocyte differentiation (Oil Red O): 10 μM compound, co-treatment with AEA 10 μM, 7 days; for adipocyte differentiation / lipid accumulation (Oil Red O staining): 1, 10, 50 μM for 7 days
[6] = target: T5, Mouse Brain Microsomes (FAAH) (Mus musculus, UniProt O08914); test: FAAH inhibition in brain microsomes, OMP hydrolysis
T5 sequence (O08914 1-579): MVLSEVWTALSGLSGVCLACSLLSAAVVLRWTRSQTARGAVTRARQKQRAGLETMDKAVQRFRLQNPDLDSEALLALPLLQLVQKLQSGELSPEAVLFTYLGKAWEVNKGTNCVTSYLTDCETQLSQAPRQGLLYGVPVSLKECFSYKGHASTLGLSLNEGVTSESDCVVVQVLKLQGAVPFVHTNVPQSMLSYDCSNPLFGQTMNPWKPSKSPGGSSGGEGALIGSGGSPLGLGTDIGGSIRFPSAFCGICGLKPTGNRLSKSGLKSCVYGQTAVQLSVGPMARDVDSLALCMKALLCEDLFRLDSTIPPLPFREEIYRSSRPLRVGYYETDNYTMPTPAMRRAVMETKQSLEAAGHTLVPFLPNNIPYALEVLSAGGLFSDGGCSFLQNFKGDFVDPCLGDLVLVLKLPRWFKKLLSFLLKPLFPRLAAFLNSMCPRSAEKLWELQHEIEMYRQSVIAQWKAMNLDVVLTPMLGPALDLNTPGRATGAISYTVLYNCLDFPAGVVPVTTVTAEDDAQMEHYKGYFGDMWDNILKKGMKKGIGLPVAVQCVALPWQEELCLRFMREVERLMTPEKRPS

[7] = target: T6, Rat Brain Microsomes (FAAH) (Rattus norvegicus, UniProt P97612); test: as above
T6 sequence (P97612 1-579): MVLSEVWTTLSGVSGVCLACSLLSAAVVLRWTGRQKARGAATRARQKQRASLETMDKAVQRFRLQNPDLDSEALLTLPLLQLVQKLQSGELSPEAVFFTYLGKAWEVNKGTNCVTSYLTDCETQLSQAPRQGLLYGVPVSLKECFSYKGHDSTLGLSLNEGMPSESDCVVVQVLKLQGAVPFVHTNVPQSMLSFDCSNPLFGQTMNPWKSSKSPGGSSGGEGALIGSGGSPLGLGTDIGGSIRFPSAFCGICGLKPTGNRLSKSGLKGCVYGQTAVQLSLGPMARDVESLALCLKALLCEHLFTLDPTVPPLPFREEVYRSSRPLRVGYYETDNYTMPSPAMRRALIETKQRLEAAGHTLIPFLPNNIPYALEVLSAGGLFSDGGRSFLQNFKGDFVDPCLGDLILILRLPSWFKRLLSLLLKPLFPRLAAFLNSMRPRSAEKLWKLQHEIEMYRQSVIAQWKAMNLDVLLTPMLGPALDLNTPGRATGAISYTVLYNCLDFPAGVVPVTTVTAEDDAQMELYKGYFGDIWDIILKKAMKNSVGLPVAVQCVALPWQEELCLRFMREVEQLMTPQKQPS

[8] = human exposure; ref Calafat et al., 2010; Tefre de Renzy-Martin et al., 2014; cited from earlier work
[9] = as inhibitor concentration increases

O=C(O)c1ccc(O)cc1 [4-HO-benzoate, 4-hydroxybenzoic acid]
activity / potency towards FAAH (in words) [1]: completely inactive

CCCCC/C=C\C/C=C\C/C=C\C/C=C\CCCC(=O)NCCO [AEA, arachidonoyl ethanolamide, reference compound]
expression of markers of differentiation ([2]; 3T3-L1, AEA 10 μM, 7 days): increased expression of several markers of differentiation (PPARγ and C/EBPα)

O=C(OCc1ccccc1)c1ccc(O)cc1 [Benzylparaben, benzylparaben]
mechanism of FAAH inhibition [1]: mixed type mechanism
Ki ([1]; Ki, linear mixed-type model of inhibition): 52 ± 14 nM
potency relative to URB597 (less potent) ([1]; after a 5 min incubation): 3 fold
change in KM app [1, 9]: 18 to 98 µM
change in Vmax app [1, 9]: 5.5 RFU/s to 2.0 RFU/s
α value ([1]; linear mixed-type model of inhibition): 9.7 ± 6.6
time-dependence of FAAH inhibition [1]: independent on incubation time
Ki ([1]; upper limit of relative Ki, at saturating substrate, mixed-type interaction): ≤ 1000 nM
IC50 [3]: > 10000 nM
IC50 [4]: > 10000 nM
IC50 [5]: > 10000 nM
effect on AEA-mediated adipocyte differentiation (Oil Red O) (3T3-L1 cells): do not synergize to increase adipocyte differentiation
adipocyte differentiation / lipid accumulation (Oil Red O staining) (3T3-L1 cells): dose-dependently enhanced 3T3-L1 adipocyte differentiation
effect on AEA-induced adipocyte marker expression ([2]; 7 days): not significantly changed
PPARγ, C/EBPα and FABP4 mRNA expression [2]: enhanced PPARγ, C/EBPα and FABP4 mRNA expression
IC50 [6]: 210 nM
IC50 [7]: 230 nM

CCCCOC(=O)c1ccc(O)cc1 [Butylparaben, butylparaben]
time-dependence of FAAH inhibition [1]: independent on incubation time
IC50 [3]: > 10000 nM
IC50 [4]: > 10000 nM
IC50 [5]: > 10000 nM
effect on AEA-mediated adipocyte differentiation (Oil Red O) (3T3-L1 cells): do not synergize to increase adipocyte differentiation
adipocyte differentiation / lipid accumulation (Oil Red O staining) (3T3-L1 cells): dose-dependently enhanced 3T3-L1 adipocyte differentiation
effect on AEA-induced adipocyte marker expression ([2]; 7 days): not significantly changed
PPARγ, C/EBPα and FABP4 mRNA expression [2]: enhanced PPARγ, C/EBPα and FABP4 mRNA expression
urinary concentrations [8]: 0.1 to 0.5 µM
IC50 [6]: 1600 nM
IC50 [7]: 1100 nM

COc1ccc(C(=O)OCc2ccccc2)cc1 [Compound 2]
activity / potency towards FAAH (in words) [1]: completely removed potency

O=C(OCc1ccccc1)c1ccccc1 [Compound 3]
activity / potency towards FAAH (in words) [1]: completely removed potency

O=C(OCc1ccccc1)c1ccc([N+](=O)[O-])cc1 [Compound 4]
activity / potency towards FAAH (in words) [1]: completely removed potency

O=C(OCC1CCCCC1)c1ccc(O)cc1 [Compound 5]
decrease in potency relative to benzylparaben ([1]; FAAH IC50, 5 min pre-incubation): 2 fold

CCCCCCCOC(=O)c1ccc(O)cc1 [Compound 6, heptylparaben]
activity / potency towards FAAH (in words) [1]: no change in potency

COC(=O)c1ccc(O)cc1 [Methylparaben, methylparaben]
activity / potency towards FAAH (in words) [1]: completely inactive

O=C(Nc1ccccc1)N1CCN(Cc2ccc3ccccc3n2)CC1 [PF622, N-phenyl-4-(quinolin-2-ylmethyl)piperazine-1-carboxamide]
effect on AEA-mediated adipocyte differentiation (Oil Red O) (3T3-L1 cells): do not synergize to increase adipocyte differentiation
adipocyte differentiation / lipid accumulation (Oil Red O staining) (3T3-L1 cells): had no effects at any of the doses tested

NC(=O)c1cccc(-c2cccc(OC(=O)NC3CCCCC3)c2)c1 [URB597, 3′-carbamoyl-[1,1′-biphenyl]-3-yl cyclohexylcarbamate, reference compound]
IC50 [3]: 2200 nM
IC50 [4]: 730 nM
IC50 [5]: > 10000 nM
effect on AEA-mediated adipocyte differentiation (Oil Red O) (3T3-L1 cells): do not synergize to increase adipocyte differentiation
adipocyte differentiation / lipid accumulation (Oil Red O staining) (3T3-L1 cells): only exposure to 10 μM of URB597 resulted in increased lipid accumulation; also recorded: increased differentiation and only at a concentration of 10 μM, not at 50 μM
effect on AEA-induced adipocyte marker expression ([2]; 7 days): not significantly changed
PPARγ, C/EBPα and FABP4 mRNA expression [2]: increased PPARγ, C/EBPα and FABP4 mRNA expression
OMP hydrolysis remaining ([6]; 50 nM, mouse brain microsomes): less than 20%
inhibition at 0.05 µM ([6]; read-out: inhibition of activity (OMP hydrolysis)): > 80%
